Values of other authors in US6440942B1, “14-membered macrolides derived from leucomycins” (Enanta Pharmaceuticals, Inc., priority 2000, dated 2002).
Where two headings read alike, the source gives them in different places.

Tests used:
[1] = for in vitro potency relative to the parent compound: main metabolites of rokitamycin, parent compound = rokitamycin; for antimicrobial activity: josamycin metabolites isolated from urine and plasma of adults given oral josamycin
[2] = test system: Gram-positive bacteria
[3] = test system: Mycoplasma spp.
[4] = test system: Gram-negative bacteria
[5] = monkeys; compared with other 4″-O-butyryl derivatives
[6] = dogs; compared with other 4″-O-butyryl derivatives

For “4″-debutyryl leucomycin A5 [leucomycin V]”, the “in vitro potency relative to the parent compound” value [1] is listed as “one-tenth”.
For 5-hydroxyjosamycin, the antimicrobial activity [1] is listed as “poor”.
For `CCC(=O)O[C@H]1[C@H](C)O[C@@H](O[C@H]2[C@H](N(C)C)[C@@H](O)[C@H](O[C@H]3[C@@H](CC=O)C[C@@H](C)[C@@H](O)/C=C/C=C/C[C@@H](C)OC(=O)C[C@@H](O)[C@@H]3OC)O[C@@H]2C)C[C@@]1(C)O` [Leucomycin A7], the “in vitro potency relative to the parent compound” value [1] is given as “one-half”.
For `COC1C(O)CC(=O)OC(C)CC=CC=CC(=O)C(C)CC(CC=O)C1OC1OC(C)C(OC2CC(C)(O)C(OC(=O)CC(C)C)C(C)O2)C(N(C)C)C1O` (stereo not drawn) [Niddamycin], the “antibacterial activity in vitro” value [2] is given as “good” and the “antibacterial activity in vitro” value [3] is given as “good”.
In the case of `COC1C(OC(C)=O)CC(=O)OC(C)CC=CC=CC(O)C(C)CC(CC=O)C1OC1OC(C)C(OC2CC(C)(O)C(O)C(C)O2)C(N(C)C)C1O` (stereo not drawn) [desisovaleryl josamycin], the antimicrobial activity [1] is listed as “inactive”.
For `CCCC(=O)O[C@H]1[C@H](C)O[C@@H](O[C@H]2[C@H](N(C)C)[C@@H](O)[C@H](O[C@H]3[C@@H](CC=O)C[C@@H](C)[C@@H](O)/C=C/C=C/C[C@@H](C)OC(=O)C[C@@H](O)[C@@H]3OC)O[C@@H]2C)C[C@@]1(C)OC(=O)CC` [rokitamycin, 3″-O-propionyl leucomycin A5], the “in vitro activity against Gram-negative bacteria relative to leucomycin A5, josamycin and midecamycin” value [4] is listed as “twice as high”, the serum levels [5] is listed as “highest” and the serum levels [6] is listed as “highest”. The “activity among 4″-O-butyryl derivatives” value ([1]; compared with other 3″-O-acyl leucomycin A5 derivatives) was “most active”.
For demycarosyl josamycin, the antimicrobial activity [1] is listed as “inactive”.
In the case of β-hydroxyisovaleryl josamycin, the antimicrobial activity [1] is listed as “poor”.
